Consider 15 compounds from US11192899B2 (MERCK PATENT GMBH, priority 2017, dated 2021).

Data set [1] deals with T1, A2B receptors (Homo sapiens, UniProt P29275).
T1 sequence (P29275 1-332): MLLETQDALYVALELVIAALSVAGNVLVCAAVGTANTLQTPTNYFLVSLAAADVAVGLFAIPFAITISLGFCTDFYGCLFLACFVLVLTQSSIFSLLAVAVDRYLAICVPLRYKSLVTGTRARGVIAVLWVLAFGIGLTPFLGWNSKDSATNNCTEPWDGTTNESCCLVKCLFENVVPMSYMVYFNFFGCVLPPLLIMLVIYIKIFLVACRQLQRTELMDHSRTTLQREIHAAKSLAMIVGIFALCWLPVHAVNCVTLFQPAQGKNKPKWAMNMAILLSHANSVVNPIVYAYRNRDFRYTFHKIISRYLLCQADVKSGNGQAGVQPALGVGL
Particulars: cited from earlier work.

Data set [2] in a line: pharmacokinetics in mouse after single intravenous and oral administration. Particulars: for Feces iv [%]: iv @ 0.2, excretion as % of dose; for Vd / clearance / half-life / Cmax: female, mouse; for Vd / clearance / half-life: 0.2 mg/kg; for Cmax: 1 mg/kg.
Description: Female Wistar rats/mice (n=6) received either a single intravenous (bolus) injection or an oral administration (by gavage) of the tested compound.
The concentrations of the compounds in plasma, feces were quantified using an UPLC method with tandem mass spectrometric detection (LC-MS/MS) previously developed at the ‘Institute of Drug Metabolism and Pharmacokinetics’. The LCMS/MS system consisted of a Waters Acquity UPLC coupled to an AB Sciex mass spectrometer API 5500 Q-trap. […] The detection of the compounds was performed using multiple reaction monitoring in the positive ionization mode. Plasma samples were spiked with internal standard (20 μl) and the analyte was extracted from the matrix using tertiary-butyl methyl ether (tBME). The organic phase was evaporated to dryness under a stream of nitrogen. The residue was dissolved in acetonitrile/0.1% formic acid for LC-MS/MS analysis. Feces samples were homogenized with 4-times their volume of an ethanol/water mixture (4:1, v/v). Aliquots of the aqueous-ethanolic extracts were spiked with internal standard, diluted with acetonitrile/water (1:1, v/v) and directly injected into the LC-MS/MS system.
Pharmacokinetic parameters Cmax and tmax were taken from the observed data. […] AUC values were calculated by non-compartmental analysis using the linear up/log down method. Numerical data for mean plasma concentrations and derived pharmacokinetic parameters were rounded to 3 significant digits for presentation.
A further data set has as its system mouse Pan T cells. Description: rescue of cytokine (IL-2, IFN-γ) secretion of CD3/CD28-activated mouse Pan T cells inhibited by CGS-21680. In kind it is cell-based. The following applies: for IC50: Mus musculus, T-cell. From the text:
Adenosine (Ado) in tumor microenvironment can inhibit T cell activity by signaling through A2A receptors and suppress cytokine secretion by T cells. […] Potential A2A antagonists or A2A/A2B dual antagonists can rescue T cells from this inhibition. Herein, we describe the in vitro system we established using Pan T cells from mouse spleens to screen potential A2A antagonists or A2A/A2B dual antagonists for their activity. The method described involves the use of CD3/CD28 pre-coated beads to stimulate Pan T cells purified from mouse splenocytes, combined with the addition of A2A agonist along with potential A2A or A2A/A2B dual antagonists to evaluate potentiation of T cell cytokine production.
Briefly, mouse Pan T cells are purified from spleens of BALB/c mice using Pan T cell isolation kit Mouse II (MACS Miltenyi biotech Cat #Order no. 130-095-130) according to manufacturer's protocol. The purified T cells are seeded in Nunc™ 96-Well Polystyrene Round Bottom Microwell Plates in RPMI medium with 10% heat inactivated fetal bovine serum. The cells are rested at 37° C. for 1 h before activating with CD3/CD28 pre-coated beads (Dynabeads™ Mouse T-Activator CD3/CD28; Cat #11456D). After 30 min the cells are treated with varying doses of test antagonist(s). […] After 24 h incubation IL-2 levels in the supernatants and after 48 h incubation IFN-γ levels in the supernatants are measured by ELISAs according to manufacturer's protocol (R&D systems Cat #DY402 (IL-2); DY485 (IFN-γ)). Once the concentrations are calculated, the difference of cytokine concentration of DMSO control and agonist alone control is calculated (called Δ) and the percentage of rescue by each concentration of antagonist is calculated by using Microsoft Excel. These percentages of cytokine rescue in a dose dependent manner of antagonist is plotted in GraphPad Prism software and IC50 is calculated.

A further data set concerns the target T2, human A3 receptor (Homo sapiens, UniProt P0DMS8).
T2 construct: expressed in transfected cells; host or cells: CHO
T2 sequence (P0DMS8 1-318): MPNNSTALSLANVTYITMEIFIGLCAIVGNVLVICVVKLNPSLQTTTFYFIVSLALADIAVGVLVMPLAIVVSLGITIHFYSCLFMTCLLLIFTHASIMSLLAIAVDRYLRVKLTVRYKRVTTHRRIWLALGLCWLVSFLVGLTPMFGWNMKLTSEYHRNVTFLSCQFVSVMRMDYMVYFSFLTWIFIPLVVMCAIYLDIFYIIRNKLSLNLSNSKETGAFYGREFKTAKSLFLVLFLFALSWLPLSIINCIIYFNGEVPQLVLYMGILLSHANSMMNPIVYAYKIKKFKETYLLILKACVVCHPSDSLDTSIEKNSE
Description: cAMP HTRF functional assay, recombinant CHO cells expressing human A3 receptor, forskolin and agonist IB-MECA. The class given is cell-based. The protocol:
(§1) The functional activities of human A2A, A2B, A1 and A3 receptors were determined by quantification of cAMP, being the second messenger for adenosine receptors.
(§2) For human A1 and A3 receptors, recombinant CHO cells, expressing either A1 or A3-receptor, were used. As both receptors couple to Gi proteins, the assay protocol was adapted:
(§3) Cells were seeded into 384-well plates, forskolin, test compounds and agonists (CPA for A1- and IB-MECA for A3-receptor) were added. After 30 min incubation, HTRF reagents (cAMP dynamic 2, Cis Bio) were added and the cellular cAMP levels were determined using the ENVISION (Perkin Elmer) plate reader.
(§4) Obtained raw data were normalized against the inhibitor control and the neural control (DMSO) and the normalized data were fitted using GeneData software.
For orientation: In TR-FRET formats the signal depends on donor and acceptor labels being close together.

The target in data set [3] is T1, A2B receptors. In words: cAMP HTRF functional assay, recombinant HEK293 cells expressing human A2B receptor, agonist NECA. In kind it is cell-based. More on the design: expressed in transfected cells; host or cells: HEK293. The protocol:
as §1, §4

Another data set has as its target T3, human A1 receptor (Homo sapiens, UniProt P30542).
T3 construct: expressed in transfected cells; host or cells: CHO
T3 sequence (P30542 1-326): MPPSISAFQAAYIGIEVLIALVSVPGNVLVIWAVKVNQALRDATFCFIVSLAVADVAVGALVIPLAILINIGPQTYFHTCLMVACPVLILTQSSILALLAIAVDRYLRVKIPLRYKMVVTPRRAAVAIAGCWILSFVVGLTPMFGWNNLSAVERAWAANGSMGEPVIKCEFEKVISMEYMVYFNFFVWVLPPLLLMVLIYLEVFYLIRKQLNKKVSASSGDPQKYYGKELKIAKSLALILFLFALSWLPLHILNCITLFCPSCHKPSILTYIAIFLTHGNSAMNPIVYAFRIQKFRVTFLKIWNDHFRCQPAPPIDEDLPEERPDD
Description: cAMP HTRF functional assay, recombinant CHO cells expressing human A1 receptor, forskolin and agonist CPA. The class given is cell-based. On the procedure:
as §1, §2, §3, §4

The target in the next data set is T4, human A2A receptor (Homo sapiens, UniProt P29274).
T4 construct: expressed in transfected cells; host or cells: HEK293
T4 sequence (P29274 whole entry): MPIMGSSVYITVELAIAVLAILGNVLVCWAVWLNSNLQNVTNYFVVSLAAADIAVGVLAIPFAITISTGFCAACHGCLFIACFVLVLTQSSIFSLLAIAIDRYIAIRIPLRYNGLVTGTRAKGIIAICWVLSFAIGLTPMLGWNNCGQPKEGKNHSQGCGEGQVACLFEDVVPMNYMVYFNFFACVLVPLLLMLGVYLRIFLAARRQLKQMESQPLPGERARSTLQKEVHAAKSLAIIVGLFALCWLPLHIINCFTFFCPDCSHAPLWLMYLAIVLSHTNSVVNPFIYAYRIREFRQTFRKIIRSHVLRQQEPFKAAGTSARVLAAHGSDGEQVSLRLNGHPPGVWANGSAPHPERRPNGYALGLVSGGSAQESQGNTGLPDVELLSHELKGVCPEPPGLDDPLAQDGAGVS
Description: cAMP HTRF functional assay, recombinant HEK293 cells expressing human A2A receptor, agonist NECA. In kind it is cell-based. On the procedure:
as §1, §4

Setting [4] is: 24 h, read-out: Mouse T-Cell IL-2.

Read-outs that look alike come from different tables or passages of the source. Where only a bound is given, the exact number is not on record here.

Usually half-life stands for how long it takes for the measured level to halve. One may read the Cmax as the peak of the concentration-time curve.

As to `CCCn1c(=O)c2[nH]c(-c3ccc(S(=O)(=O)O)cc3)nc2n(CCC)c1=O` [DPSPX, 1,3-dipropyl-8-sulphophenylxanthine], the “affinity for A2B receptors” value at A2B receptors [1] is “mid to high nM range”.
As to `COc1ccc(N2CCOCC2)c2sc(NC(=O)N3CCC(C)(O)CC3)nc12` [Tozadenant, reference compound], in data set [2] (PK data in mouse, iv), the “CL” value amounted to 1478 mL/min/kg, the “Vss [L/kg]” value is 2,03 L/kg, the “t1/2 [h]” value was 0,184 h and the “CMax (iv) @ 1 mg/kg” value came out at 337 ng/mL. For the same compound, in data set [2] (PK data in mouse), the “Feces iv [%]” value was 23 @ 0.2%. Besides, the “Mouse IFN-γ [nM]” value in the data set on mouse Pan T cells (IFN-γ rescue, 48 h, CGS-21680 1 μM, BALB/c Pan T cells) is “NA (< 50% rescue)”. Also, the “Mouse T-Cell IL-2 [nM]” value with mouse Pan T cells (IL-2 rescue, 24 h, CGS-21680 1 μM, BALB/c Pan T cells) is given as “NA (< 50% rescue)”.
For the compound `O=c1[nH]c(=O)c2nc3ccccc3nc2[nH]1` [alloxazine, 2,4-dioxobenzopteridine], at A2B receptors [1], the “affinity for A2B receptors” value was “mid to high nM range”.
As for `COc1ccc(-c2ccccc2)c2ncc(NC(=O)N3CCC(C)(O)CC3)nc12` [compound 2, 4-Hydroxy-4-methyl-piperidine-1-carboxylic acid (8-methoxy-5-phenyl-quinoxalin-2-yl)-amide], the IC50 was > 1000 nM at human A3 receptor; > 1000 nM on A2B receptors [3]; > 1000 nM on human A1 receptor; 400 nM in the data set on mouse Pan T cells (setting [4]); 600 nM in the data set on mouse Pan T cells (48 h, read-out: Mouse IFN-γ); < 100 nM on human A2A receptor. Besides, the “Feces iv [%]” value in data set [2] (PK data in mouse) is given as 12.5 @ 0.2%. This compound also displayed a Vd in data set [2] (plasma, iv) of 1.13 L/kg. The clearance in data set [2] (plasma, iv) is 5.65 mL/min/kg. Moreover, the half-life in data set [2] (plasma, iv) was 2.37 h. Also, the Cmax in data set [2] (plasma, iv) was 732 ng/mL.
For `COc1ccc(C2CCOCC2)c2ncc(NC(=O)N3CCC(C)(O)CC3)nc12` [compound 5], the IC50 is > 1000 nM at human A3 receptor, > 1000 nM on A2B receptors [3], > 1000 nM at human A1 receptor and < 100 nM at human A2A receptor. Moreover, the “Feces iv [%]” value in data set [2] (PK data in mouse) is reported as 4.2 @ 0.2%. Besides, in data set [2] (PK data in mouse, iv), the “CMax (iv) @ 1 mg/kg” value is 908 ng/mL. For the same compound, the half-life in data set [2] (in vivo, iv) was 0.92 h. The compound further returned a Vd in data set [2] (plasma, iv) of 1.24 L/kg. In addition, the clearance in data set [2] (plasma, iv) was 19.7 mL/min/kg.
On to `C#CCC1(O)CCN(C(=O)Nc2cnc3c(C4CCOCC4)ccc(OC)c3n2)CC1` [compound 10], for which the IC50 on human A3 receptor is > 1000 nM; on A2B receptors [3], > 1000 nM; on human A1 receptor, < 1000 nM; on human A2A receptor, < 100 nM. For the same compound, the “Feces iv [%]” value in data set [2] (PK data in mouse) is 1.8 @ 0.2%. This compound also showed a Vd in data set [2] (plasma, iv) of 0.811 L/kg. This compound showed a clearance in data set [2] (plasma, iv) of 18.2 mL/min/kg. For the same compound, the half-life in data set [2] (plasma, iv) was 0.55 h. The same compound showed a Cmax in data set [2] (plasma, iv) of 1090 ng/mL.
As for `COc1ncc(-c2ccccc2)c2ncc(NC(=O)N3CCC(C)(O)CC3)nc12` [compound 27, 4-Hydroxy-4-methyl-piperidine-1-carboxylic acid (5-methoxy-8-phenyl-pyrido[3,4-b]pyrazin-3-yl)-amide], the IC50 on human A3 receptor was > 1000 nM; at A2B receptors [3] it was > 1000 nM; at human A1 receptor, < 1000 nM; in the data set with mouse Pan T cells (setting [4]) it was 375 nM; with mouse Pan T cells (48 h, read-out: Mouse IFN-γ), 333 nM; at human A2A receptor, < 100 nM. Further, in data set [2] (PK data in mouse), the “Feces iv [%]” value is 6.2 @ 0.2%. For the same compound, the Vd in data set [2] (plasma, iv) was determined as 0.82 L/kg. In data set [2] (plasma, iv), this compound showed a clearance of 3.78 mL/min/kg. In data set [2] (plasma, iv), this compound showed a half-life of 2.56 h. The peak level in data set [2] (plasma, iv) (Cmax) was 983 ng/mL.
With `COc1ccc(C2=CCOCC2)c2ncc(NC(=O)c3cnsc3)nc12` [compound 136, N-[5-(3,6-dihydro-2H-pyran-4-yl)-8-methoxyquinoxalin-2-yl]-1,2-thiazole-4-carboxamide], the IC50 on human A3 receptor is > 1000 nM; on A2B receptors [3], < 100 nM; at human A1 receptor it was < 1000 nM; at human A2A receptor, < 10 nM.
For `COc1ccc(-c2cccnc2)c2ncc(NC(=O)c3cnc(C)o3)nc12` [compound 138, N-[8-methoxy-5-(pyridin-3-yl)quinoxalin-2-yl]-2-methyl-1,3-oxazole-5-carboxamide], the IC50 at human A3 receptor was > 1000 nM; on A2B receptors [3] it was < 100 nM; at human A1 receptor, < 10 nM; at human A2A receptor it was < 100 nM.
As to `COc1ccc(C2=CCOC2)c2ncc(NC(=O)C3CC3)nc12` [compound 141, N-[5-(2,5-dihydrofuran-3-yl)-8-methoxyquinoxalin-2-yl]cyclopropanecarboxamide], the IC50 at human A3 receptor was < 1000 nM; at A2B receptors [3], < 100 nM; at human A1 receptor, < 1000 nM; at human A2A receptor, < 100 nM.
`COCCOc1cccc(-c2ccc(OC)c3nc(NC(=O)C4CC4)cnc23)c1` [compound 147, N-{8-methoxy-5-[3-(2-methoxyethoxy)phenyl]quinoxalin-2-yl}cyclopropanecarboxamide]: the IC50 at human A3 receptor is < 1000 nM; at A2B receptors [3], < 100 nM; on human A1 receptor it was < 1000 nM; at human A2A receptor it was < 10 nM.
For the compound `COCCOc1cccc(-c2ccc(OC)c3nc(NC(=O)c4cnc(C)o4)cnc23)c1` [compound 148, N-{8-methoxy-5-[3-(2-methoxyethoxy)phenyl]quinoxalin-2-yl}-2-methyl-1,3-oxazole-5-carboxamide], the IC50 is > 1000 nM at human A3 receptor, < 100 nM at A2B receptors [3], < 1000 nM on human A1 receptor and < 10 nM on human A2A receptor.
The corresponding values for `COCCOc1cccc(-c2ccc(OC)c3nc(NC(=O)c4cnc(C)s4)cnc23)c1` [compound 151, N-{8-methoxy-5-[3-(2-methoxyethoxy)phenyl]quinoxalin-2-yl}-2-methyl-1,3-thiazole-5-carboxamide] are > 1000 nM, > 1000 nM, < 1000 nM and < 100 nM.
For `COc1ncc(-c2ccc(OC)c3nc(NC(=O)C4CC4)cnc23)cn1` [compound 156, N-[8-methoxy-5-(2-methoxypyrimidin-5-yl)quinoxalin-2-yl]cyclopropanecarboxamide], in that order: > 1000 nM, > 1000 nM, < 1000 nM and < 100 nM.
Take `CCCn1c(=O)[nH]c(=O)c2[nH]cnc21` [enprofylline, 3-n-propylxanthine]: the “affinity for A2B receptors” value on A2B receptors [1] is reported as “mid to high nM range”.
